Measured values published in patent publication US20080076666A1, “Formulation” (priority 2005, published 2008).
Converted amounts (≈) assume the structure as drawn. Read-outs that look alike come from different tables or passages of the source.

How the values were obtained:
[1] = Water solubility of UV protection dyes (Table 1); conditions: for solubility: water
[2] = Photo stabilisation study of COMPOUND (V) in gelatine microcapsules exposed to daylight (HPLC); format: physicochemical
Experimental: The HPLC system was from Waters comprising of two 510 pumps, a 717 plus Autosampler, a System Interface Module, a Lambda-Max 480 detector and Millennium Chromatography Manager software. Chromatography was achieved on a Zorbax ODS 5 μm C18 analytical column of dimension 4.6×250 mm internal diameter maintained at 35° C. Mobile phases were unmodified water (Milli-Q grade) in reservoir A and unmodified acetonitrile in reservoir B. Linear gradient elution was used with 70 to 90% B over the first 10 minutes, then 100% B for 3 minutes and returning to 70% B over 4 minutes. Injection cycle time was 20 minutes with a flow rate of 2 ml/min. The samples were either dissolved in acetonitrile or diethyl ether and 10 μl volume injected on to the column which was maintained at 35° C. Prior to use, mobile phase were degassed under vacuum with sonication and continuously sparged with helium. The naphthoquinones were detected by measurement of UV absorbance at 269 nm.
A batch of gelatine microcapsules containing 300 mg of COMPOUND (V) in 15 ml of Exxsol® D100 was produced.
The capsule slurry was washed repeatedly with water to remove debris and filtered to obtain a wet cake. An aliquot of the wet cake (11.3 g) was made up to 50 ml and dyed brown with Chocolate Brown (500 mg, equivalent to 10 mg/ml solution). Aliquots (200 μl) of microcapsule slurry of brown and undyed capsules were applied to glass microscope slides in duplicate. The slurry from each batch was spread to form a monolayer of microcapsules on each slide. The slides were air dried in a dark at room temperature (≅21° C.) and exposed to daylight on a south-facing windowsill for various time periods. Two slides from each batch were analysed per time point post of exposure. Unexposed slides stored in the dark were used as time zero reference.
The contents of the capsules were extracted by rupturing the capsules, by rolling a glass rod on the slides, and washing both the rod and the slide with diethyl ether. The extracts were made up to 10 ml and assayed by HPLC.

Row | WATER SOLUBILITY [1] [mg/mL] | Molecule | also measured
1 | 50 | CC1=NN(c2ccc(S(=O)(=O)[O-])cc2)C(=O)C1N=Nc1ccc(-c2ccc(N=Nc3ccc(OS(=O)(=O)c4ccc(C)cc4)cc3)c(S(=O)(=O)[O-])c2)cc1.[Na+].[Na+] (centres unmarked) [Acid Orange 63] | 
2 | 20 | Cc1nn(-c2ccccc2)c([O-])c1N=Nc1cc([N+](=O)[O-])cc(S(=O)(=O)[O-])c1[O-].[Cr+3].[Na+].[OH-] [Acid Orange 74] | 
3 |  | Cc1cc(N=Nc2ccc(C)c(N=Nc3cc(C)c(N)cc3N)c2)c(N)cc1N [Bismark Brown R] | solubility [1]: 70 mg/mL (≈ 180 mM)
4 | 50 | Nc1ccc(N=Nc2cccc(N=Nc3ccc(N)cc3N)c2)c(N)c1 [Bismark Brown Y] | 
5 |  | Cc1c(C2(c3cc(Br)c(O)c(Br)c3C)OS(=O)(=O)c3ccccc32)cc(Br)c(O)c1Br [Bromocresol Green] | solubility [1]: 6 mg/mL (≈ 8.6 mM)
6 |  | CC(=O)OC1=C(C(C)CCC[Si](C)(C)C)C(=O)c2ccccc2C1=O (centres unmarked) [COMPOUND (V)] | amount of COMPOUND (V) in capsules, of the initial amount ([2]; Chocolate Brown dyed impervious gelatine microcapsules, 88 hours exposure to daylight (8 hours daylight over 11 days)): ~80%; amount of COMPOUND (V) in capsules, of the initial amount ([2]; undyed impervious gelatine microcapsules, 6 hours exposure to daylight): 60%; amount of COMPOUND (V) in capsules, of the initial amount ([2]; undyed impervious gelatine microcapsules, 16 hours exposure to daylight): 23%; amount of COMPOUND (V) in capsules, of the initial amount ([2]; undyed impervious gelatine microcapsules, 40 hours exposure to daylight (8 hours daylight over 5 days)): 6%; period for which COMPOUND (V) was stabilised on exposure to daylight ([2]; within impervious gelatine microcapsules (Chocolate Brown dyed)): in excess of eleven-days
7 |  | Nc1c(/N=N/c2ccc(-c3ccc(/N=N/c4cc(S(=O)(=O)O)c5ccccc5c4N)cc3)cc2)cc(S(=O)(=O)O)c2ccccc12 [Congo Red] | solubility [1]: 40 mg/mL (≈ 61.3 mM)
8 | 40 | O=S(=O)([O-])c1ccc2c(N=Nc3ccccc3)c(O)ccc2c1.[Na+] [Crocein Orange G] | 
9 | 1 | CC(=O)Nc1ccc2nc3c4ccccc4c(=N)cc-3oc2c1.Cl [Darrow Red] | 
10 | 100 | CCN(CC)c1ccc(N=Nc2ccc(S(=O)(=O)[O-])cc2)cc1.[K+] [Ethyl Orange] | 
11 | 3 | CCN(CC)c1ccc(N=Nc2ccccc2C(=O)O)cc1 [Ethyl Red] | 
12 |  | CN(C)c1ccc(/N=N/c2ccccc2C(=O)O)cc1 [Methyl Red] | solubility [1]: 2 mg/mL (≈ 7.43 mM)
13 | 60 | Nc1cc(N)c(N=Nc2cccc3c(S(=O)(=O)O)cccc23)cc1N=Nc1cc([N+](=O)[O-])ccc1O.[Na] [Mordant Brown 1] | 
14 |  | Cc1cc(N=Nc2cc([N+](=O)[O-])cc([N+](=O)[O-])c2O)c(N)cc1N [Mordant Brown 4] | WATER SOLUBILITY ([1]; hot water (remark)): 60 mg/mL
15 | 20 | Nc1cc(N)c(S(=O)(=O)[O-])cc1N=Nc1cc([N+](=O)[O-])ccc1O.[Na+] [Mordant Brown 33] | 
16 | 40 | Nc1cc(N)c(N=Nc2cc([N+](=O)[O-])cc([N+](=O)[O-])c2O)cc1Cl [Mordant Brown 48] | 
17 | 30 | Acid Orange 51 | 

Row | Molecule | WATER SOLUBILITY [1] [mg/mL] | also measured
18 | O=S1(=O)OC(c2ccc(O)c(Cl)c2)(c2ccc(O)c(Cl)c2)c2ccccc21 [Chlorophenol Red] | 60 | 
19 | Cc1cc(O)ccc1C1(c2ccc(O)cc2C)OS(=O)(=O)c2ccccc21 [m-Cresol Purple] | 2 | 
